The conditions of series [1]: cited from earlier work.
For series [2] the following is noted: cited from earlier work. The source holds these as a separate data set.
Series [3] deals with herpes. The series is described as follows: Oral NANA in a subject with chronic herpes outbreaks. It counts as in vivo, human. As to conditions: daily dose of 3 grams, outbreaks approximately every other week for 10 years before. The procedure:
A daily dose of 3 grams NANA was administered to a subject suffering from chronic herpes outbreaks which had occurred approximately every other week for 10 years.

The conditions of series [4]: rat, in vivo, cited from earlier work.

The structures appear in SMILES notation.

The values below come from patent US12685741B2, “N-acetylneuraminic acid compositions and methods of use” (LifeScience AS, priority 2017, dated 2026).

The NOAEL is the highest dose or exposure tested at which no adverse effect was seen.

As for `CC(=O)N[C@H]1[C@H]([C@H](O)[C@H](O)CO)OC(O)(C(=O)O)C[C@@H]1O` (stereo partly drawn) [NANA, N-acetylneuraminic acid], the absorption after ingestion result in series [1] (in vivo) is reported as “rapidly absorbed”. Further, the excretion entry in series [1] (via urine) is on record as “quickly excreted”. Moreover, the solubility in water result in series [2] is recorded as “Easily soluble in water”. Further, in series [3], the herpes outbreaks result is “has not had a herpes outbreak for two months”. For the same molecule, in series [4] (po), the toxic effects entry is “No toxic effects have been detected”. Further, in series [4], the NOAEL was 974 mg/kg body weight/day.
